24 compounds from patent US20240199587A1, “HETEROCYCLIC COMPOUNDS” (Hoffmann-La Roche Inc., priority 2021, published 2024) can be followed below.

SMILES strings stand for the structures.

In this experiment the target is T1, MAGL (Homo sapiens, UniProt Q99685).
T1 sequence (Q99685 1-303): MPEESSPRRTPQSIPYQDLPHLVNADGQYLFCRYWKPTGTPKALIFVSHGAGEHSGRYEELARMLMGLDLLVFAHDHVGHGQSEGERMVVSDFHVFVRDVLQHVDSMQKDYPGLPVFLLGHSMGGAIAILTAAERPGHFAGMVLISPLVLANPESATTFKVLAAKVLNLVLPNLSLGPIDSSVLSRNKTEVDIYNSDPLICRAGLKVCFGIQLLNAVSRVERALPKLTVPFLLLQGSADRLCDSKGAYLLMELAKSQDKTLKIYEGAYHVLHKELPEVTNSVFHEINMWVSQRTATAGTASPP
Briefly: 2-AG assay (MAGL inhibitory activity, hydrolysis of 2-arachidonoylglycerol to arachidonic acid followed by mass spectrometry). It counts as biochemical. Particulars: 8 μM 2-arachidonoylglycerol, 15 min pre-incubation, 30 min incubation at RT, RapidFire MS readout. The essentials:
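Arachidonic acid released from 8 μM 2-arachidonoylglycerol was quantified by online SPE triple-quadrupole MS (negative ESI, 303.1→259.1), normalised to d8-arachidonic acid internal standard. Reaction ran 30 min at RT after 15 min RT compound pre-incubation with […] MAGL in TRIS/EDTA/Tween-20 buffer, 2.5% DMSO.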
Regarding `O=C(N1CC2(CCN(Cc3ccc(C(F)(F)F)cn3)CC2)C1)N1CC2(CC(n3cnc(C4CC4)n3)C2)C1` [Example 463, [6-(3-cyclopropyl-1,2,4-triazol-1-yl)-2-azaspiro[3.3]heptan-2-yl]-[7-[[5-(trifluoromethyl)-2-pyridyl]methyl]-2,7-diazaspiro[3.5]nonan-2-yl]methanone], the 50% inhibitory concentration (IC50) (commonly the midpoint of a concentration-inhibition curve) came to 2.42 nM. To `O=C(N1CC2(CCN(Cc3ccc(C(F)(F)F)nc3)CC2)C1)N1CC2(CC(n3cnc(C4CC4)n3)C2)C1` [Example 464, [6-(3-cyclopropyl-1,2,4-triazol-1-yl)-2-azaspiro[3.3]heptan-2-yl]-[7-[[6-(trifluoromethyl)-3-pyridyl]methyl]-2,7-diazaspiro[3.5]nonan-2-yl]methanone] belongs 5.05 nM; to `O=C(N1CC2(CC(CNC3(C(F)(F)F)COC3)C2)C1)N1CC2(CC(n3cnc(C4CC4)n3)C2)C1` [Example 465, [6-(3-cyclopropyl-1,2,4-triazol-1-yl)-2-azaspiro[3.3]heptan-2-yl]-[6-[[[3-(trifluoromethyl)oxetan-3-yl]amino]methyl]-2-azaspiro[3.3]heptan-2-yl]methanone], 3.17 nM. To `O=C(N1CC(c2ccc(-c3nnc(C4(C(F)(F)F)CC4)[nH]3)cc2)C1)N1CC2(CC(n3cnc(C4CC4)n3)C2)C1` [Example 466, [6-(3-cyclopropyl-1,2,4-triazol-1-yl)-2-azaspiro[3.3]heptan-2-yl]-[3-[4-[5-[1-(trifluoromethyl)cyclopropyl]-4H-1,2,4-triazol-3-yl]phenyl]azetidin-1-yl]methanone] belongs 1.17 nM; to `O=C(N1CC(c2ccc(-c3n[nH]c(C4CC4)n3)cc2)C1)N1CC2(CC(n3cnc(C4CC4)n3)C2)C1` [Example 467, [6-(3-cyclopropyl-1,2,4-triazol-1-yl)-2-azaspiro[3.3]heptan-2-yl]-[3-[4-(5-cyclopropyl-1H-1,2,4-triazol-3-yl)phenyl]azetidin-1-yl]methanone], 2.36 nM.

In turn, `CS(=O)(=O)c1cc(F)cc(CC2CC3(C2)CN(C(=O)N2CC4(CC(n5cnc(C6CC6)n5)C4)C2)C3)c1` [Example 468, [6-(3-cyclopropyl-1,2,4-triazol-1-yl)-2-azaspiro[3.3]heptan-2-yl]-[6-[(3-fluoro-5-methylsulfonyl-phenyl)methyl]-2-azaspiro[3.3]heptan-2-yl]methanone] had a half-inhibitory concentration (IC50) of 0.15 nM. Compared with the last compound, the IC50 is about 16-fold lower.

Regarding `O=C(N1CC2(CC(n3cnc(C4CC4)n3)C2)C1)N1CC2(CN(Cc3ccc(S(=O)(=O)C(F)(F)F)cc3)C2)C1` [Example 469, [6-(3-cyclopropyl-1,2,4-triazol-1-yl)-2-azaspiro[3.3]heptan-2-yl]-[6-[[4-(trifluoromethylsulfonyl)phenyl]methyl]-2,6-diazaspiro[3.3]heptan-2-yl]methanone], 0.48 nM corresponded to half-maximal inhibition (IC50).

The compound `O=C(N1CC(c2cnc(NCC3(C(F)(F)F)CC3)cn2)C1)N1CC2(CC(n3cnc(C4CC4)n3)C2)C1` [Example 470, [6-(3-cyclopropyl-1,2,4-triazol-1-yl)-2-azaspiro[3.3]heptan-2-yl]-[3-[5-[[1-(trifluoromethyl)cyclopropyl]methylamino]pyrazin-2-yl]azetidin-1-yl]methanone] displayed an IC50 of 0.42 nM.

For the compound `O=C(N1CC(c2ccc(-c3n[nH]c(C4CCC4)n3)cc2)C1)N1CC2(CC(n3cnc(C4CC4)n3)C2)C1` [Example 471, [3-[4-(5-cyclobutyl-1H-1,2,4-triazol-3-yl)phenyl]azetidin-1-yl]-[6-(3-cyclopropyl-1,2,4-triazol-1-yl)-2-azaspiro[3.3]heptan-2-yl]methanone], the IC50 is 0.69 nM. `O=C(N1CC2(CC(n3cnc(C4CC4)n3)C2)C1)N1CC2(CN(Cc3ccc(C(F)(F)F)nn3)C2)C1` [Example 472, [6-(3-cyclopropyl-1,2,4-triazol-1-yl)-2-azaspiro[3.3]heptan-2-yl]-[6-[[6-(trifluoromethyl)pyridazin-3-yl]methyl]-2,6-diazaspiro[3.3]heptan-2-yl]methanone] came in with a half-inhibitory concentration (IC50) of 45.3 nM. The compound `O=C(N1CC2(CC(n3cnc(C4CC4)n3)C2)C1)N1CC2(CN(Cc3cnc(C(F)(F)F)cn3)C2)C1` [Example 473, [6-(3-cyclopropyl-1,2,4-triazol-1-yl)-2-azaspiro[3.3]heptan-2-yl]-[6-[[5-(trifluoromethyl)pyrazin-2-yl]methyl]-2,6-diazaspiro[3.3]heptan-2-yl]methanone] yielded an IC50 of 11.4 nM. In turn, `O=C(N1CC2(CC(n3cnc(C4CC4)n3)C2)C1)N1CC2(C1)CN(S(=O)(=O)C13CC(C(F)(F)F)(C1)C3)C2` [Example 474, [6-(3-cyclopropyl-1,2,4-triazol-1-yl)-2-azaspiro[3.3]heptan-2-yl]-[2-[[3-(trifluoromethyl)-1-bicyclo[1.1.1]pentanyl]sulfonyl]-2,6-diazaspiro[3.3]heptan-6-yl]methanone] displayed an IC50 of 24.5 nM. Take `CS(=O)(=O)c1cc(F)ccc1CC1CC2(C1)CN(C(=O)N1CC3(CC(n4cnc(C5CC5)n4)C3)C1)C2` [Example 475, [6-(3-cyclopropyl-1,2,4-triazol-1-yl)-2-azaspiro[3.3]heptan-2-yl]-[6-[(4-fluoro-2-methylsulfonyl-phenyl)methyl]-2-azaspiro[3.3]heptan-2-yl]methanone]: the midpoint of inhibition, the IC50, lay at 0.44 nM.

With `O=C(N1CC(c2ccc(N3CC[C@H](C(F)(F)F)C3)nc2)C1)N1CC2(CC(n3cnc(C4CC4)n3)C2)C1` [Example 476, [6-(3-cyclopropyl-1,2,4-triazol-1-yl)-2-azaspiro[3.3]heptan-2-yl]-[3-[6-[(3S)-3-(trifluoromethyl)pyrrolidin-1-yl]-3-pyridyl]azetidin-1-yl]methanone], the half-inhibitory concentration (IC50) turned out to be 0.56 nM.

As for `O=C(N1CC(c2ccc(NC3(C(F)(F)F)CC3)nc2)C1)N1CC2(CC(n3cnc(C4CC4)n3)C2)C1` [Example 477, [6-(3-cyclopropyl-1,2,4-triazol-1-yl)-2-azaspiro[3.3]heptan-2-yl]-[3-[6-[[1-(trifluoromethyl)cyclopropyl]amino]-3-pyridyl]azetidin-1-yl]methanone], the IC50 worked out at 0.97 nM. To `O=C(N1CC(c2ccc(NCC3(C(F)(F)F)CC3)cn2)C1)N1CC2(CC(n3cnc(C4CC4)n3)C2)C1` [Example 478, [6-(3-cyclopropyl-1,2,4-triazol-1-yl)-2-azaspiro[3.3]heptan-2-yl]-[3-[5-[[1-(trifluoromethyl)cyclopropyl]methylamino]-2-pyridyl]azetidin-1-yl]methanone] belongs 0.74 nM; to `O=C(N1CC(c2cnc(N3CC(C(F)(F)F)C3)nc2)C1)N1CC2(CC(n3cnc(C4CC4)n3)C2)C1` [Example 479, [6-(3-cyclopropyl-1,2,4-triazol-1-yl)-2-azaspiro[3.3]heptan-2-yl]-[3-[2-[3-(trifluoromethyl)azetidin-1-yl]pyrimidin-5-yl]azetidin-1-yl]methanone], 7.5 nM; to `O=C(N1CC(c2cnc(N3CC[C@H](C(F)(F)F)C3)nc2)C1)N1CC2(CC(n3cnc(C4CC4)n3)C2)C1` [Example 481, [6-(3-cyclopropyl-1,2,4-triazol-1-yl)-2-azaspiro[3.3]heptan-2-yl]-[3-[2-[(3S)-3-(trifluoromethyl)pyrrolidin-1-yl]pyrimidin-5-yl]azetidin-1-yl]methanone], 4.07 nM. On to `O=C(N1CC(c2cnc(N3CC[C@@H](C(F)(F)F)C3)nc2)C1)N1CC2(CC(n3cnc(C4CC4)n3)C2)C1` [Example 482, [6-(3-cyclopropyl-1,2,4-triazol-1-yl)-2-azaspiro[3.3]heptan-2-yl]-[3-[2-[(3R)-3-(trifluoromethyl)pyrrolidin-1-yl]pyrimidin-5-yl]azetidin-1-yl]methanone], for which half-maximal inhibition (IC50) was put at 1.26 nM. With `CS(=O)(=O)c1ccc(CC2CC3(C2)CN(C(=O)N2CC4(CC(n5cnc(C6CC6)n5)C4)C2)C3)c(F)c1` [Example 483, [6-(3-cyclopropyl-1,2,4-triazol-1-yl)-2-azaspiro[3.3]heptan-2-yl]-[6-[(2-fluoro-4-methylsulfonyl-phenyl)methyl]-2-azaspiro[3.3]heptan-2-yl]methanone], the IC50 turned out to be 0.16 nM.

The compound `O=C(N1CC2(CCN(S(=O)(=O)C34CC(C(F)(F)F)(C3)C4)CC2)C1)N1CC2(CC(n3cnc(C4CC4)n3)C2)C1` [Example 484, [6-(3-cyclopropyl-1,2,4-triazol-1-yl)-2-azaspiro[3.3]heptan-2-yl]-[7-[[3-(trifluoromethyl)-1-bicyclo[1.1.1]pentanyl]sulfonyl]-2,7-diazaspiro[3.5]nonan-2-yl]methanone] came in with a half-maximal inhibitory concentration (IC50) of 19.5 nM.

`CS(=O)(=O)c1cccc(CN2CCC3(CC2)CN(C(=O)N2CC4(CC(n5cnc(C6CC6)n5)C4)C2)C3)c1` [Example 485, [6-(3-cyclopropyl-1,2,4-triazol-1-yl)-2-azaspiro[3.3]heptan-2-yl]-[7-[(3-methylsulfonylphenyl)methyl]-2,7-diazaspiro[3.5]nonan-2-yl]methanone] showed an IC50 of 26.7 nM. Then `CS(=O)(=O)c1ccc(CN2CCC3(CC2)CN(C(=O)N2CC4(CC(n5cnc(C6CC6)n5)C4)C2)C3)cc1` [Example 486, [6-(3-cyclopropyl-1,2,4-triazol-1-yl)-2-azaspiro[3.3]heptan-2-yl]-[7-[(4-methylsulfonylphenyl)methyl]-2,7-diazaspiro[3.5]nonan-2-yl]methanone], with 14.6 nM; and `O=C(N1CC2(CC(Cc3cnc(C(F)(F)F)cn3)C2)C1)N1CC2(CC(n3cnc(C4(O)CC4)n3)C2)C1` [Example 487, [6-[3-(1-hydroxycyclopropyl)-1,2,4-triazol-1-yl]-2-azaspiro[3.3]heptan-2-yl]-[6-[[5-(trifluoromethyl)pyrazin-2-yl]methyl]-2-azaspiro[3.3]heptan-2-yl]methanone], with 3.93 nM.
